The record followed here is PubChem BioAssay AID1745844 (Carcinogenic Potency Database (CPDB), 2022).

For the series, the system named is rodent lifetime carcinogenesis bioassay, tumor incidence TD50. The series is described as follows: chronic cancer bioassays in animals – CPDB, compiled studies (AID 1745844).

Each structure is given as a SMILES string. Calls of active or inactive are those of the source. How the calls were made is not given here.

Take `CC(=O)CN(N=O)C(=O)NCCCl`: the TD50 (usually the dose at which the toxic effect under study appears in half of the subjects) by setting is: (hamster, strain Syrian Golden, females, by gavage, site: spleen, lesion: all vascular tumors, dosed 43 weeks, study length 75 weeks) 0.774 mg/kg/day; (hamster, strain Syrian Golden, males, by gavage, site: spleen, lesion: hemangiosarcoma, dosed 43 weeks, study length 75 weeks) 0.216 mg/kg/day; (rat, strain Fischer 344, females, by gavage, site: liver, lesion: one or several types, types not named, dosed 30 weeks, study length 104 weeks) 1.36 mg/kg/day; (rat, strain Fischer 344, females, by gavage, site: nervous system, lesion: one or several types, types not named, dosed 30 weeks, study length 104 weeks) 4.49 mg/kg/day; (rat, strain Fischer 344, females, in drinking water, site: lung, lesion: one or several types, types not named, dosed 30 weeks, study length 104 weeks) 4.49 mg/kg/day; (rat, strain Fischer 344, females, in drinking water, site: nervous system, lesion: one or several types, types not named, dosed 30 weeks, study length 104 weeks) 4.49 mg/kg/day. Further, the TD50 worked out at 3.14 mg/kg/day (rat, strain Fischer 344, males, by gavage, site: lung, lesion: one or several types, types not named, dosed 30 weeks, study length 104 weeks); 0.951 mg/kg/day (rat, strain Fischer 344, males, by gavage, site: nervous system, lesion: one or several types, types not named, dosed 30 weeks, study length 104 weeks); 3.14 mg/kg/day (rat, strain Fischer 344, males, in drinking water, site: liver, lesion: one or several types, types not named, dosed 30 weeks, study length 104 weeks); 1.5 mg/kg/day (rat, strain Fischer 344, males, in drinking water, site: lung, lesion: one or several types, types not named, dosed 30 weeks, study length 104 weeks); 3.14 mg/kg/day (rat, strain Fischer 344, males, in drinking water, site: nervous system, lesion: one or several types, types not named, dosed 30 weeks, study length 104 weeks).
On to `CC(Cl)C=O` (centres undefined), for which the TD50 (mouse, strain Ha/ICR, females, by gavage, site: forestomach, lesion: one or several types, types not named, dosed 89 weeks, study length 89 weeks) was 12.9 mg/kg/day and the TD50 (mouse, strain Ha/ICR, males, by gavage, site: forestomach, lesion: one or several types, types not named, dosed 89 weeks, study length 89 weeks) was 22.7 mg/kg/day.
`CCCCOC(=O)COc1ccc(Cl)cc1Cl`: the carcinogen call by setting is: (mouse, strain B6AKF1, females, oral dosing, site: any site (literature study), lesion: several types, types named in the paper, dosed 76 weeks, study length 76 weeks) “negative (inactive)”; (mouse, strain B6AKF1, females, oral dosing, site: liver, lesion: hepatoma, dosed 76 weeks, study length 76 weeks) “negative (inactive)”; (mouse, strain B6AKF1, females, oral dosing, site: lung, lesion: adenoma, dosed 76 weeks, study length 76 weeks) “negative (inactive)”; (mouse, strain B6AKF1, males, oral dosing, site: any site (literature study), lesion: several types, types named in the paper, dosed 76 weeks, study length 76 weeks) “negative (inactive)”; (mouse, strain B6AKF1, males, oral dosing, site: liver, lesion: hepatoma, dosed 76 weeks, study length 76 weeks) “negative (inactive)”; (mouse, strain B6AKF1, males, oral dosing, site: lung, lesion: adenoma, dosed 76 weeks, study length 76 weeks) “negative (inactive)”. For the same compound, the carcinogen call (mouse, strain B6C3F1, females, oral dosing, site: liver, lesion: hepatoma, dosed 76 weeks, study length 76 weeks) was “negative (inactive)” and the carcinogen call (mouse, strain B6C3F1, females, oral dosing, site: lung, lesion: several types, types named in the paper, dosed 76 weeks, study length 76 weeks) was “negative (inactive)”. Further, the TD50 was 29.7 mg/kg/day (inactive) (mouse, strain B6C3F1, females, oral dosing, site: any site (literature study), lesion: several types, types named in the paper, dosed 76 weeks, study length 76 weeks); 38.1 mg/kg/day (inactive) (mouse, strain B6C3F1, males, oral dosing, site: any site (literature study), lesion: several types, types named in the paper, dosed 76 weeks, study length 76 weeks); 122 mg/kg/day (inactive) (mouse, strain B6C3F1, males, oral dosing, site: liver, lesion: hepatoma, dosed 76 weeks, study length 76 weeks); 59 mg/kg/day (inactive) (mouse, strain B6C3F1, males, oral dosing, site: lung, lesion: adenoma, dosed 76 weeks, study length 76 weeks).
Consider `C=CCN(CC(C)O)N=O` (centres undefined), for which the TD50 (rat, strain Fischer 344, females, in drinking water, site: esophagus, lesion: several types, types named in the paper, dosed 50 weeks, study length 65 weeks) is 4.67 mg/kg/day; the TD50 (rat, strain Fischer 344, females, in drinking water, site: liver, lesion: hepatocellular carcinoma, dosed 50 weeks, study length 65 weeks) was 1.38 mg/kg/day; the TD50 (rat, strain Fischer 344, females, in drinking water, site: nasal cavity, lesion: several types, types named in the paper, dosed 50 weeks, study length 65 weeks) was 0.877 mg/kg/day.
Consider `Cc1cc(C)c(S(=O)(=O)O)cc1N=Nc1cc(S(=O)(=O)O)c2ccccc2c1O`, for which the TD50 runs as follows: (dog, strain Beagle, females, in feed, site: adrenal gland, lesion: medullary adenoma, dosed 365 weeks, study length 365 weeks) 316 mg/kg/day; (dog, strain Beagle, females, in feed, site: any site (literature study), lesion: several types, types named in the paper, dosed 365 weeks, study length 365 weeks) 670 mg/kg/day; (dog, strain Beagle, females, in feed, site: mammary gland, lesion: adenocarcinoma, dosed 365 weeks, study length 365 weeks) 316 mg/kg/day (inactive); (mouse, strain C57BL/He, both sexes, in feed, site: any site (literature study), lesion: several types, types named in the paper, dosed 104 weeks, study length 104 weeks) 20300 mg/kg/day (inactive); (mouse, strain C57BL/He, both sexes, in feed, site: liver, lesion: hepatoma, dosed 104 weeks, study length 104 weeks) 57100 mg/kg/day (inactive); (rat, strain Non-inbred, both sexes, in feed, site: any site (literature study), lesion: several types, types named in the paper, dosed 143 weeks, study length 143 weeks) 12000 mg/kg/day. In addition, the TD50 runs as follows: (rat, strain Non-inbred, both sexes, in feed, site: liver, lesion: hepatoma, dosed 143 weeks, study length 143 weeks) 49500 mg/kg/day; (rat, strain Osborne-Mendel, both sexes, in feed, site: all sites, lesion: fibrosarcoma, dosed 104 weeks, study length 104 weeks) 20300 mg/kg/day (inactive); (rat, strain Osborne-Mendel, both sexes, in feed, site: liver, lesion: adenoma, dosed 104 weeks, study length 104 weeks) 59800 mg/kg/day (inactive); (rat, strain Wistar, both sexes, in feed, site: abdomen, lesion: malignant lymphoma, dosed 91 weeks, study length 91 weeks) 6130 mg/kg/day. Further, the carcinogen call is, setting by setting: (mouse, strain C3HeB/Jax, both sexes, in feed, site: any site (literature study), lesion: several types, types named in the paper, dosed 104 weeks, study length 104 weeks) “negative (inactive)”; (mouse, strain C3HeB/Jax, both sexes, in feed, site: liver, lesion: hepatoma, dosed 104 weeks, study length 104 weeks) “negative (inactive)”; (rat, strain Osborne-Mendel, both sexes, in feed, site: any site (literature study), lesion: several types, types named in the paper, dosed 104 weeks, study length 104 weeks) “negative (inactive)”; (rat, strain Sprague-Dawley, both sexes, in feed, site: any site (literature study), lesion: several types, types named in the paper, dosed 104 weeks, study length 104 weeks) “negative (inactive)”.
Regarding `C=CCOC(=O)c1ccccc1C(=O)OCC=C`, the TD50 by setting is: (mouse, strain B6C3F1, females, by gavage, site: any site (literature study), lesion: several types, types named in the paper, dosed 103 weeks, study length 106 weeks) 10100 mg/kg/day; (mouse, strain B6C3F1, females, by gavage, site: forestomach, lesion: papilloma, NOS, dosed 103 weeks, study length 106 weeks) 2730 mg/kg/day; (mouse, strain B6C3F1, females, by gavage, site: liver, lesion: hepatocellular adenoma + hepatocellular carcinoma + neoplastic nodule, dosed 103 weeks, study length 106 weeks) 2930 mg/kg/day; (mouse, strain B6C3F1, females, by gavage, site: lung, lesion: alveolar/bronchiolar adenoma + alveolar/bronchiolar carcinoma, dosed 103 weeks, study length 106 weeks) 4180 mg/kg/day; (mouse, strain B6C3F1, males, by gavage, site: all sites, lesion: malignant lymphoma, NOS, dosed 103 weeks, study length 106 weeks) 816 mg/kg/day; (mouse, strain B6C3F1, males, by gavage, site: any site (literature study), lesion: several types, types named in the paper, dosed 103 weeks, study length 106 weeks) 717 mg/kg/day. Also, the TD50 (mouse, strain B6C3F1, males, by gavage, site: forestomach, lesion: papilloma, NOS, dosed 103 weeks, study length 106 weeks) was 2460 mg/kg/day; the TD50 (mouse, strain B6C3F1, males, by gavage, site: liver, lesion: hepatocellular adenoma + hepatocellular carcinoma + neoplastic nodule, dosed 103 weeks, study length 106 weeks) was 6680 mg/kg/day; the TD50 (mouse, strain B6C3F1, males, by gavage, site: liver, lesion: hepatocellular adenoma, dosed 103 weeks, study length 106 weeks) amounted to 2450 mg/kg/day; the TD50 (mouse, strain B6C3F1, males, by gavage, site: lung, lesion: alveolar/bronchiolar adenoma + alveolar/bronchiolar carcinoma, dosed 103 weeks, study length 106 weeks) is 8520 mg/kg/day; the TD50 (rat, strain Fischer 344, females, by gavage, site: all sites, lesion: mononuclear-cell leukemia, dosed 103 weeks, study length 104 weeks) came to 138 mg/kg/day; the TD50 (rat, strain Fischer 344, females, by gavage, site: any site (literature study), lesion: several types, types named in the paper, dosed 103 weeks, study length 104 weeks) turned out to be 163 mg/kg/day. Under “rat, strain Fischer 344, males, by gavage, site: any site (literature study), lesion: several types, types named in the paper, dosed 103 weeks, study length 104 weeks”, the TD50 is 2990 mg/kg/day (inactive).
For `Cc1cc2ncccc2c2nc(N)n(C)c12`, the TD50 reads like this: (mouse, strain C57BL/6NCrj, females, in feed, site: cecum, lesion: adenocarcinoma, dosed 85 weeks, study length 85 weeks) 50 mg/kg/day; (mouse, strain C57BL/6NCrj, females, in feed, site: colon, lesion: adenocarcinoma, dosed 85 weeks, study length 85 weeks) 92.8 mg/kg/day; (mouse, strain C57BL/6NCrj, females, in feed, site: large intestine, lesion: adenocarcinoma, dosed 85 weeks, study length 85 weeks) 32.3 mg/kg/day; (mouse, strain C57BL/6NCrj, females, in feed, site: liver, lesion: fibrosarcoma, dosed 85 weeks, study length 85 weeks) 20.7 mg/kg/day; (mouse, strain C57BL/6NCrj, females, in feed, site: liver, lesion: hepatocellular adenoma, dosed 85 weeks, study length 85 weeks) 80 mg/kg/day; (mouse, strain C57BL/6NCrj, females, in feed, site: liver, lesion: hepatocellular carcinoma, dosed 85 weeks, study length 85 weeks) 62.1 mg/kg/day. Besides, the TD50 by setting is: (mouse, strain CDF1, females, in feed, site: forestomach, lesion: several types, types named in the paper, dosed 91 weeks, study length 91 weeks) 10.7 mg/kg/day; (mouse, strain CDF1, females, in feed, site: forestomach, lesion: squamous-cell carcinoma, dosed 91 weeks, study length 91 weeks) 24.5 mg/kg/day; (mouse, strain CDF1, females, in feed, site: liver, lesion: hepatocellular carcinoma, dosed 91 weeks, study length 91 weeks) 65.6 mg/kg/day; (mouse, strain CDF1, females, in feed, site: liver, lesion: several types, types named in the paper, dosed 91 weeks, study length 91 weeks) 27.1 mg/kg/day; (mouse, strain CDF1, females, in feed, site: lung, lesion: several types, types named in the paper, dosed 91 weeks, study length 91 weeks) 25.1 mg/kg/day (inactive); (mouse, strain CDF1, males, in feed, site: forestomach, lesion: several types, types named in the paper, dosed 91 weeks, study length 91 weeks) 14.5 mg/kg/day. The TD50 reads like this: (mouse, strain CDF1, males, in feed, site: forestomach, lesion: squamous-cell carcinoma, dosed 91 weeks, study length 91 weeks) 22.4 mg/kg/day; (mouse, strain CDF1, males, in feed, site: lung, lesion: several types, types named in the paper, dosed 91 weeks, study length 91 weeks) 148 mg/kg/day (inactive).
